Key:
Assay type in all cases: functional
SR = experiment: Cytotoxicity against Homo sapiens (human) SR cells after 48 hr by sulforhodamine B assay
HOP-62 = experiment: Cytotoxicity against Homo sapiens (human) HOP62 cells after 48 hr by sulforhodamine B assay; settings: HOP-62, 48 h
NCI-H226 = experiment: Cytotoxicity against Homo sapiens (human) NCI-H226 cells after 48 hr by sulforhodamine B assay; settings: NCI-H226, 48 h
HCT-116 = experiment: Cytotoxicity against Homo sapiens (human) HCT116 cells after 48 hr by sulforhodamine B assay; settings: HCT-116, 48 h
SK-MEL-5 = experiment: Cytotoxicity against Homo sapiens (human) SK-MEL-5 cells after 48 hr by sulforhodamine B assay; settings: SK-MEL-5, 48 h
EKVX = experiment: Cytotoxicity against Homo sapiens (human) EKVX cells after 48 hr by sulforhodamine B assay
M14 = experiment: Cytotoxicity against Homo sapiens (human) M14 cells after 48 hr by sulforhodamine B assay; settings: M14, 48 h
COLO 205 = experiment: Cytotoxicity against Homo sapiens (human) COLO205 cells after 48 hr by sulforhodamine B assay; settings: COLO 205, 48 h
OVCAR-3 = experiment: Cytotoxicity against Homo sapiens (human) OVCAR3 cells after 48 hr by sulforhodamine B assay; settings: OVCAR-3, 48 h
SN12C = experiment: Cytotoxicity against Homo sapiens (human) SN12C cells after 48 hr by sulforhodamine B assay
MDA-MB-231 = experiment: Cytotoxicity against Homo sapiens (human) MDA-MB-231 cells after 48 hr by sulforhodamine B assay; settings: MDA-MB-231, 48 h
HCC 2998 = experiment: Cytotoxicity against Homo sapiens (human) HCC2998 cells after 48 hr by sulforhodamine B assay; settings: HCC 2998, 48 h
DU-145 = experiment: Cytotoxicity against Homo sapiens (human) DU145 cells after 48 hr by sulforhodamine B assay; settings: DU-145, 48 h
HCT-15 = experiment: Cytotoxicity against Homo sapiens (human) HCT15 cells after 48 hr by sulforhodamine B assay; settings: HCT-15, 48 h
SK-MEL-28 = experiment: Cytotoxicity against Homo sapiens (human) SK-MEL-28 cells after 48 hr by sulforhodamine B assay; settings: SK-MEL-28, 48 h
Malme-3M = experiment: Cytotoxicity against Homo sapiens (human) MALME-3M cells after 48 hr by sulforhodamine B assay
MDA-MB-468 = experiment: Cytotoxicity against Homo sapiens (human) MDA-MB-468 cells after 48 hr by sulforhodamine B assay; settings: MDA-MB-468, 48 h
SK-OV-3 = experiment: Cytotoxicity against Homo sapiens (human) SKOV3 cells after 48 hr by sulforhodamine B assay; settings: SK-OV-3, 48 h
OVCAR-4 = experiment: Cytotoxicity against Homo sapiens (human) OVCAR4 cells after 48 hr by sulforhodamine B assay; settings: OVCAR-4, 48 h
MDA-MB-435 = experiment: Cytotoxicity against Homo sapiens (human) MDA-MB-435 cells after 48 hr by sulforhodamine B assay; settings: MDA-MB-435, 48 h
UACC-62 = experiment: Cytotoxicity against Homo sapiens (human) UACC62 cells after 48 hr by sulforhodamine B assay; settings: UACC-62, 48 h
[1] = Cytotoxicity against Homo sapiens (human) […] cells after 48 hr by sulforhodamine B assay
BT-549 = experiment: Cytotoxicity against Homo sapiens (human) BT549 cells after 48 hr by sulforhodamine B assay; settings: BT-549, 48 h
SW-620 = experiment: Cytotoxicity against Homo sapiens (human) SW620 cells after 48 hr by sulforhodamine B assay; settings: SW-620, 48 h
OVCAR-8 = experiment: Cytotoxicity against Homo sapiens (human) OVCAR8 cells after 48 hr by sulforhodamine B assay; settings: OVCAR-8, 48 h
NCI-H460 = experiment: Cytotoxicity against Homo sapiens (human) NCI-H460 cells after 48 hr by sulforhodamine B assay; settings: NCI-H460, 48 h
HT-29 = experiment: Cytotoxicity against Homo sapiens (human) HT-29 cells after 48 hr by sulforhodamine B assay; settings: HT-29, 48 h
KM12 = experiment: Cytotoxicity against Homo sapiens (human) KM12 cells after 48 hr by sulforhodamine B assay; settings: KM12, 48 h
[2] = Cytotoxicity against Homo sapiens (human) NCI-ADR-RES cells after 48 hr by sulforhodamine B assay
TK-10 = experiment: Cytotoxicity against Homo sapiens (human) TK10 cells after 48 hr by sulforhodamine B assay; settings: TK-10, 48 h
LOX IMVI = experiment: Cytotoxicity against Homo sapiens (human) LOXIMVI cells after 48 hr by sulforhodamine B assay

O=C(c1ccc(O)cc1)n1nc(-c2c(Cl)cccc2Cl)sc1=S
GI50 (SR): 1.51 µM
LC50 (SR): > 100 µM
TGI (SR; read-out: pTGI): > 100 µM
GI50 (HOP-62): 18.6 µM
LC50 (HOP-62): > 100 µM
TGI (HOP-62; read-out: pTGI (converted)): 43.7 µM
GI50 (NCI-H226): 12.9 µM
LC50 (NCI-H226): > 100 µM
TGI (NCI-H226; read-out: pTGI (converted)): 57.5 µM
GI50 (HCT-116): 10.7 µM
LC50 (HCT-116): 52.5 µM
TGI (HCT-116; read-out: pTGI (converted)): 24 µM
GI50 (SK-MEL-5): 10.7 µM
LC50 (SK-MEL-5): 56.2 µM
TGI (SK-MEL-5; read-out: pTGI (converted)): 24.5 µM
GI50 (EKVX): 5.01 µM
LC50 (EKVX): > 100 µM
TGI (EKVX; read-out: pTGI (converted)): 69.2 µM
GI50 (M14): 8.91 µM
LC50 (M14): 67.6 µM
TGI (M14; read-out: pTGI (converted)): 25.7 µM
GI50 (COLO 205): 13.5 µM
LC50 (COLO 205): 64.6 µM
TGI (COLO 205; read-out: pTGI (converted)): 29.5 µM
GI50 (OVCAR-3): 6.17 µM
LC50 (OVCAR-3): 67.6 µM
TGI (OVCAR-3; read-out: pTGI (converted)): 28.8 µM
GI50 (SN12C): 11.2 µM
LC50 (SN12C): > 100 µM
TGI (SN12C; read-out: pTGI (converted)): 46.8 µM
GI50 (MDA-MB-231): 13.2 µM
LC50 (MDA-MB-231): > 100 µM
TGI (MDA-MB-231; read-out: pTGI (converted)): 60.3 µM
GI50 (HCC 2998): 4.9 µM
LC50 (HCC 2998): > 100 µM
TGI (HCC 2998; read-out: pTGI (converted)): 28.8 µM
GI50 (DU-145): 5.89 µM
LC50 (DU-145): 79.4 µM
TGI (DU-145; read-out: pTGI (converted)): 29.5 µM
GI50 (HCT-15): 6.46 µM
LC50 (concentration killing 50% of cells) (HCT-15): > 100 µM
TGI (HCT-15; read-out: pTGI (converted)): 32.4 µM
GI50 (SK-MEL-28): 16.2 µM
LC50 (concentration killing 50% of cells) (SK-MEL-28): 87.1 µM
TGI (SK-MEL-28; read-out: pTGI (converted)): 37.2 µM
GI50 (Malme-3M): 29.5 µM
LC50 (Malme-3M): > 100 µM
TGI (Malme-3M; read-out: pTGI (converted)): 49 µM
GI50 (MDA-MB-468): 8.71 µM
LC50 (MDA-MB-468): > 100 µM
TGI (MDA-MB-468; read-out: pTGI (converted)): 91.2 µM
GI50 (SK-OV-3): 17.4 µM
LC50 (SK-OV-3): > 100 µM
TGI (SK-OV-3; read-out: pTGI (converted)): 44.7 µM
GI50 (OVCAR-4): 11.5 µM
LC50 (OVCAR-4): > 100 µM
TGI (OVCAR-4; read-out: pTGI (converted)): 77.6 µM
GI50 (MDA-MB-435): 3.72 µM
LC50 (MDA-MB-435): > 100 µM
TGI (MDA-MB-435; read-out: pTGI (converted)): 31.6 µM
GI50 (UACC-62): 9.55 µM
LC50 (UACC-62): 58.9 µM
TGI (UACC-62; read-out: pTGI (converted)): 24 µM
GI50 [1]: 7.59 µM
LC50 [1]: > 100 µM
TGI ([1]; read-out: pTGI (converted)): 60.3 µM
GI50 (BT-549): 28.8 µM
LC50 (BT-549): > 100 µM
TGI (BT-549; read-out: pTGI (converted)): 60.3 µM
GI50 (SW-620): 12 µM
LC50 (SW-620): 87.1 µM
TGI (SW-620; read-out: pTGI (converted)): 31.6 µM
GI50 (OVCAR-8): 22.9 µM
LC50 (OVCAR-8): > 100 µM
TGI (OVCAR-8; read-out: pTGI (converted)): 72.4 µM
GI50 (NCI-H460): 9.33 µM
LC50 (NCI-H460): 75.9 µM
TGI (NCI-H460; read-out: pTGI (converted)): 26.3 µM
GI50 (HT-29): 8.32 µM
LC50 (HT-29): 53.7 µM
TGI (HT-29; read-out: pTGI (converted)): 22.9 µM
GI50 (KM12): 3.8 µM
LC50 (KM12): 41.7 µM
TGI (KM12; read-out: pTGI (converted)): 14.8 µM
GI50 [2]: 10 µM
LC50 [2]: > 100 µM
TGI ([2]; read-out: pTGI (converted)): 49 µM
GI50 (TK-10): 4.47 µM
LC50 (TK-10): > 100 µM
TGI (TK-10; read-out: pTGI (converted)): 42.7 µM
GI50 (LOX IMVI): 10 µM
LC50 (LOX IMVI): 75.9 µM
TGI (LOX IMVI; read-out: pTGI (converted)): 27.5 µM
